Data from patent US11053230B2, “3-hydroxy-imidazolidin-4-one compounds as inhibitors of indoleamine 2,3-dioxygenase” (Netherlands Translational Research Center B.V., priority 2017, dated 2021).
Where “and” joins values, the source holds several entries; their conditions need not be identical. Equal values may be shown once.

Target: T1, IDO1 (Homo sapiens, UniProt P14902)
T1 construct: Recombinant full-length IDO1 (Seegers, N., et al.) and all other assay components were diluted in IDO1 reaction buffer; made in house
T1 sequence (P14902 whole entry): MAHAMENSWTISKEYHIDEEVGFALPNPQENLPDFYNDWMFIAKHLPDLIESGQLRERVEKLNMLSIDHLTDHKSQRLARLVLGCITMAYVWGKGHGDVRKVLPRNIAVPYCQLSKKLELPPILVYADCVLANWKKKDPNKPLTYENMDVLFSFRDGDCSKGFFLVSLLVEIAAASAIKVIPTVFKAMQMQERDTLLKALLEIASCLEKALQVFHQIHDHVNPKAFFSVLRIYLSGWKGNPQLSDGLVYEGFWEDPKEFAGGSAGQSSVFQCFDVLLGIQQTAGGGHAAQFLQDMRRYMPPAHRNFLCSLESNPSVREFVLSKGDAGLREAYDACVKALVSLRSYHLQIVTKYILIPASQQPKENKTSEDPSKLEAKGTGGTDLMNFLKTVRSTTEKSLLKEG
Assay: Biochemical IDO1 assay (NFK GreenScreen)
Settings: for IC50: NFK GreenScreen, 25 nM IDO1, 100 μM L-tryptophan, read-out: IC50, inhibitory potency on IDO1; for relative activity of the separated isomers: stated in the synthesis examples, assay not named
Protocol: Inhibition of IDO1 activity can be measured by determining the enzymatic conversion of L-tryptophan into N-formylkynurenine (NFK) in a reaction mixture containing IDO1 and test compound. The formation of NFK can be detected directly by, for instance, high-performance liquid chromatography (HPLC) methods, or by intrinsic fluorescence.
Compounds were serially diluted in dimethylsulfoxide (DMSO) and finally in IDO1 reaction buffer, consisting of 50 mM NaH2PO4, pH7.0, supplemented with 0.05% Tween-20 (cat. No. P7949; Sigma Aldrich) and 1% glycerol. Recombinant full-length IDO1 (Seegers, N., et al.) and all other assay components were diluted in IDO1 reaction buffer. […] Subsequently, 10 μl of 0.4 mM of the substrate L-tryptophan was added, i.e., the final concentration of L-tryptophan was 100 μM. The DMSO concentration in the assay was 0.3%. […] Incubation was continued for 60 min at room temperature. Then, 10 μl of NFK Green™ (NTRC, Oss, The Netherlands) was added, the plate was sealed, and the reaction was developed for 3 hours at 37° C. To determine the production of N-formyl kynurenine (NFK), the seal was removed and fluorescence was read on an EnVision multimode reader (Perkin Elmer, Waltham, Mass., USA). IC50 were calculated using XLfit™ software (ID Business Solutions, Ltd., Surrey, U.K.).

Compound	IC50	relative activity of the separated isomers
[2H]C([2H])([2H])c1sc(C2N(O)C(=O)CN2C(=O)c2c(F)cccc2F)cc1Br (centres unmarked) [Example 114, 2-[4-Bromo-5-(trideuteriomethyl)-2-thienyl]-1-(2,6-difluorobenzoyl)-3-hydroxy-imidazolidin-4-one]	≤ 1000 nM	–
CC(C)CCc1cc(F)c(C(=O)N2CC(=O)N(O)C2c2cc(Br)cs2)c(F)c1 (centres unmarked) [Example 95, 2-(4-Bromo-2-thienyl)-1-(2,6-difluoro-4-isopentyl-benzoyl)-3-hydroxy-imidazolidin-4-one]	≤ 5000 nM and 1000 to 5000 nM	–
O=C1CN(C(=O)C2CCCCC2)C(c2cc(Br)cs2)N1O (centres unmarked) [Example 67, 2-(4-Bromo-2-thienyl)-1-(cyclohexanecarbonyl)-3-hydroxy-imidazolidin-4-one]	≤ 5000 nM and 1000 to 5000 nM	–
C[C@@H](c1ccccc1)N1CC(=O)N(O)C1c1cc(Br)cs1 (single isomer, unassigned) [Example 118b]	≤ 1000 nM	most active isomer
O=C1CN(C(=O)c2c(F)ccc(-c3cccs3)c2F)C(c2cc(Br)cs2)N1O (centres unmarked) [Example 131, 2-(4-Bromo-2-thienyl)-1-[2,6-difluoro-3-(2-thienyl)benzoyl]-3-hydroxy-imidazolidin-4-one]	≤ 1000 nM	–
CS(=O)(=O)c1ccc(-c2ccc(C(=O)N3CC(=O)N(O)C3c3cc(Br)cs3)cc2)cc1 (centres unmarked) [Example 71, 2-(4-Bromo-2-thienyl)-3-hydroxy-1-[4-(4-methylsulfonylphenyl)benzoyl]imidazolidin-4-one]	≤ 5000 nM and 1000 to 5000 nM	–
O=C1CN(C(=O)c2c(F)cc(C3CC3)cc2F)C(c2cc(Br)cs2)N1O (centres unmarked) [Example 82, 2-(4-Bromo-2-thienyl)-1-(4-cyclopropyl-2,6-difluoro-benzoyl)-3-hydroxy-imidazolidin-4-one]	≤ 1000 nM	–
O=C1CN(C(=O)c2c(F)ccc(Br)c2F)C(c2cc(Br)cs2)N1O (centres unmarked) [Example 74, 1-(3-Bromo-2,6-difluoro-benzoyl)-2-(4-bromo-2-thienyl)-3-hydroxy-imidazolidin-4-one]	≤ 1000 nM	–
CC(=O)NCC#Cc1cc(F)c(C(=O)N2CC(=O)N(O)C2c2cc(Br)cs2)c(F)c1 (centres unmarked) [Example 130, N-[3-[4-[2-(4-Bromo-2-thienyl)-3-hydroxy-4-oxo-imidazolidine-1-carbonyl]-3,5-difluoro-phenyl]prop-2-ynyl]acetamide]	≤ 1000 nM	–
O=C1CN(C(=O)c2ccncc2F)C(c2cc(Br)cs2)N1O (centres unmarked) [Example 73, 2-(4-Bromo-2-thienyl)-1-(3-fluoropyridine-4-carbonyl)-3-hydroxy-imidazolidin-4-one]	≤ 1000 nM	–
O=C1CN(C(=O)c2c(F)cccc2F)C(c2ccc([N+](=O)[O-])s2)N1O (centres unmarked) [Example 16, 1-(2,6-Difluorobenzoyl)-3-hydroxy-2-(5-nitro-2-thienyl)imidazolidin-4-one]	≤ 5000 nM and 1000 to 5000 nM	–
C=Cc1ccc(F)c(C(=O)N2CC(=O)N(O)C2c2cc(Br)cs2)c1F (centres unmarked) [Example 128, 2-(4-Bromo-2-thienyl)-1-(2,6-difluoro-3-vinyl-benzoyl)-3-hydroxy-imidazolidin-4-one]	≤ 1000 nM	–
C[C@@H](c1ccccc1)N1CC(=O)N(O)C1c1csc(Br)c1 (single isomer, unassigned) [Example 121a]	–	less active isomer
O=C1CN(C(=O)c2c(F)ccc(-c3ccc(F)s3)c2F)C(c2cc(Br)cs2)N1O (centres unmarked) [Example 132, 2-(4-Bromo-2-thienyl)-1-[2,6-difluoro-3-(5-fluoro-2-thienyl)benzoyl]-3-hydroxy-imidazolidin-4-one]	≤ 1000 nM	–
Cc1ccccc1-c1ccc(F)c(C(=O)N2CC(=O)N(O)C2c2cc(Br)cs2)c1F (centres unmarked) [Example 133, 2-(4-Bromo-2-thienyl)-1-[2,6-difluoro-3-(o-tolyl)benzoyl]-3-hydroxy-imidazolidin-4-one]	≤ 1000 nM	–
O=C1CN(C(=O)c2ccc(Cc3ccccc3)cc2)C(c2cc(Br)cs2)N1O (centres unmarked) [Example 53, 1-(4-Benzylbenzoyl)-2-(4-bromo-2-thienyl)-3-hydroxy-imidazolidin-4-one]	≤ 5000 nM and 1000 to 5000 nM	–
CS(=O)(=O)Nc1ccc(F)c(C(=O)N2CC(=O)N(O)C2c2cc(Br)cs2)c1F (centres unmarked) [Example 107, N-[3-[2-(4-bromo-2-thienyl)-3-hydroxy-4-oxo-imidazolidine-1-carbonyl]-2,4-difluoro-phenyl]methanesulfonamide]	≤ 1000 nM	–
O=C1CN(C(=O)c2ccc(Oc3ccccc3)cc2)C(c2cc(Br)cs2)N1O (centres unmarked) [Example 54, 2-(4-Bromo-2-thienyl)-3-hydroxy-1-(4-phenoxybenzoyl)imidazolidin-4-one]	≤ 5000 nM and 1000 to 5000 nM	–
O=C1CN(C(=O)c2ccccc2F)C(c2cc(Br)cs2)N1O (centres unmarked) [Example 9, 2-(4-Bromo-2-thienyl)-1-(2-fluorobenzoyl)-3-hydroxy-imidazolidin-4-one]	≤ 1000 nM	–
O=C1CN(C(=O)c2c(Cl)cccc2Cl)C(c2cc(Br)cs2)N1O (centres unmarked) [Example 10, 2-(4-Bromo-2-thienyl)-1-(2,6-dichlorobenzoyl)-3-hydroxy-imidazolidin-4-one]	≤ 5000 nM and 1000 to 5000 nM	–
NC1(C#Cc2cc(F)c(C(=O)N3CC(=O)N(O)C3c3cc(Br)cs3)c(F)c2)CC1 (centres unmarked) [Example 89, 1-[4-[2-(1-Aminocyclopropyl)ethynyl]-2,6-difluoro-benzoyl]-2-(4-bromo-2-thienyl)-3-hydroxy-imidazolidin-4-one]	≤ 1000 nM	–
CS(=O)(=O)NCc1cc(F)c(C(=O)N2CC(=O)N(O)C2c2cc(Br)cs2)c(F)c1 (centres unmarked) [Example 91, N-[[4-[2-(4-Bromo-2-thienyl)-3-hydroxy-4-oxo-imidazolidine-1-carbonyl]-3,5-difluoro-phenyl]methyl]methanesulfonamide]	≤ 1000 nM	–

Next, values leading:

IC50	relative activity of the separated isomers	Compound
≤ 1000 nM	–	O=C1CN(C(=O)c2ccccc2F)C(c2csc(Br)c2)N1O (centres unmarked) [Example 98, 2-(5-Bromo-3-thienyl)-1-(2-fluorobenzoyl)-3-hydroxy-imidazolidin-4-one]
≤ 1000 nM	–	Cc1sc(C2N(O)C(=O)CN2C(=O)c2c(F)cccc2F)cc1Br (centres unmarked) [Example 113, 2-(4-bromo-5-methyl-2-thienyl)-1-(2,6-difluorobenzoyl)-3-hydroxy-imidazolidin-4-one]
≤ 1000 nM	–	O=C1CN(C(=O)c2c(F)cccc2F)C(c2cc(Br)c(Cl)s2)N1O (centres unmarked) [Example 115, 2-(4-Bromo-5-chloro-2-thienyl)-1-(2,6-difluorobenzoyl)-3-hydroxy-imidazolidin-4-one]
≤ 1000 nM	–	O=C1CN(C(=O)c2c(F)ccc(C(F)(F)F)c2F)C(c2cc(Br)cs2)N1O (centres unmarked) [Example 76, 2-(4-Bromo-2-thienyl)-1-[2,6-difluoro-3-(trifluoromethyl)benzoyl]-3-hydroxy-imidazolidin-4-one]
≤ 5000 nM and 1000 to 5000 nM	–	O=C1CN(C(=O)c2c(F)cccc2F)C(c2nc(Br)cs2)N1O (centres unmarked) [Example 22, 2-(4-Bromothiazol-2-yl)-1-(2,6-difluorobenzoyl)-3-hydroxy-imidazolidin-4-one]
≤ 5000 nM and 1000 to 5000 nM	–	O=C1CN(C(=O)c2c(F)cccc2F)C(c2cc(Br)co2)N1O (centres unmarked) [Example 23, 2-(4-Bromo-2-furyl)-1-(2,6-difluorobenzoyl)-3-hydroxy-imidazolidin-4-one]
≤ 1000 nM	–	O=C1CN(C(=O)c2c(F)cccc2Cl)C(c2cc(Br)cs2)N1O (centres unmarked) [Example 7, 2-(4-Bromo-2-thienyl)-1-(2-chloro-6-fluoro-benzoyl)-3-hydroxy-imidazolidin-4-one]
–	less active isomer	O=C1CN(C(=O)c2c(F)cccc2F)C(c2cc(Br)c(F)s2)N1O (single isomer, unassigned) [Example 110b, 2-(4-Bromo-5-fluoro-2-thienyl)-1-(2,6-difluorobenzoyl)-3-hydroxy-imidazolidin-4-one]
≤ 5000 nM and 1000 to 5000 nM	less active isomer	O=C1CN(C(=O)c2c(F)cccc2F)C(c2csc(Br)c2)N1O (single isomer, unassigned) [Example 46a, 2-(5-Bromo-3-thienyl)-1-(2,6-difluorobenzoyl)-3-hydroxy-imidazolidin-4-one]
≤ 5000 nM and 1000 to 5000 nM	–	O=C1CN(C(=O)c2c(F)cccc2C(F)(F)F)C(c2csc(Br)c2)N1O (centres unmarked) [Example 100, 2-(5-Bromo-3-thienyl)-1-[2-fluoro-6-(trifluoromethyl)benzoyl]-3-hydroxy-imidazolidin-4-one]
≤ 1000 nM	–	[2H]c1sc(C2N(O)C(=O)CN2C(=O)c2c(F)cccc2F)cc1Br (centres unmarked) [Example 111, 2-(4-Bromo-5-deuterio-2-thienyl)-1-(2,6-difluorobenzoyl)-3-hydroxy-imidazolidin-4-one]
≤ 1000 nM	–	O=C1CN(C(=O)c2c(F)cccc2F)C(c2csc([N+](=O)[O-])c2)N1O (centres unmarked) [Example 20, 1-(2,6-Difluorobenzoyl)-3-hydroxy-2-(5-nitro-3-thienyl)imidazolidin-4-one]
≤ 1000 nM	–	O=C1CN(C(=O)c2c(F)cccc2F)C(c2csc(Br)c2)N1O (centres unmarked) [Example 28, 2-(5-Bromo-3-thienyl)-1-(2,6-difluorobenzoyl)-3-hydroxy-imidazolidin-4-one]
≤ 5000 nM and 1000 to 5000 nM	–	O=C1CN(C(=O)c2c(F)cccc2F)C(c2cc(C3CC3)cs2)N1O (centres unmarked) [Example 109, 2-(4-Cyclopropyl-2-thienyl)-1-(2,6-difluorobenzoyl)-3-hydroxy-imidazolidin-4-one]
